ChEMBL document CHEMBL3112450, “Synthesis and in vitro antitumor evaluation of primary amine substituted quinazoline linked benzimidazole” (Bioorg Med Chem Lett, 2014)

What was measured:
Type in all cases: functional
COLO 205 [1] = test: Cytotoxicity against human COLO205 cells assessed as cell growth at 10^-6 M after 48 hrs by SRB assay; conditions: COLO 205, 48 h, read-out: Activity
SN12C [2] = test: Cytotoxicity against human SN12C cells assessed as cell growth at 10^-4 M after 48 hrs by SRB assay; conditions: read-out: Activity
COLO 205 [3] = test: Cytotoxicity against human COLO205 cells assessed as cell growth at 10^-8 M after 48 hrs by SRB assay; conditions: COLO 205, 48 h, read-out: Activity
HT-29 [4] = test: Cytotoxicity against human HT-29 cells after 48 hrs by SRB assay; conditions: HT-29, 48 h
HOP-92 [5] = test: Cytotoxicity against human HOP92 cells after 48 hrs by SRB assay; conditions: HOP-92, 48 h
[6] = Cytotoxicity against human UO31 cells assessed as cell growth at 10^-4 M after 48 hrs by SRB assay; conditions: UO-31, 48 h, read-out: Activity
DU-145 [7] = test: Cytotoxicity against human DU145 cells assessed as cell growth at 10^-6 M after 48 hrs by SRB assay; conditions: DU-145, 48 h, read-out: Activity
SF-539 [8] = test: Cytotoxicity against human SF539 cells assessed as cell growth at 10^-8 M after 48 hrs by SRB assay; conditions: SF-539, 48 h, read-out: Activity
A498 = test: Cytotoxicity against human A498 cells assessed as growth inhibition at 10 uM after 48 hrs by SRB assay; conditions: A498, 48 h, read-out: GI
OVCAR-3 = test: Cytotoxicity against human OVCAR3 cells assessed as cell growth at 10^-6 M after 48 hrs by SRB assay; conditions: OVCAR-3, 48 h, read-out: Activity
MCF7 [9] = test: Cytotoxicity against human MCF7 cells assessed as cell growth at 10^-7 M after 48 hrs by SRB assay; conditions: MCF7, 48 h, read-out: Activity
SN12C [10] = test: Cytotoxicity against human SN12C cells assessed as cell growth at 10^-8 M after 48 hrs by SRB assay; conditions: read-out: Activity
HL-60(TB) = test: Cytotoxicity against human HL-60(TB) cells assessed as cell growth at 10^-6 M after 48 hrs by SRB assay; conditions: HL-60, 48 h, read-out: Activity
UACC-62 = test: Cytotoxicity against human UACC62 cells assessed as cell growth at 10^-6 M after 48 hrs by SRB assay; conditions: UACC-62, 48 h, read-out: Activity
HOP-92 [11] = test: Cytotoxicity against human HOP92 cells assessed as cell growth at 10^-7 M after 48 hrs by SRB assay; conditions: HOP-92, 48 h, read-out: Activity
SF-539 [12] = test: Cytotoxicity against human SF539 cells assessed as cell growth at 10^-7 M after 48 hrs by SRB assay; conditions: SF-539, 48 h, read-out: Activity
[13] = Cytotoxicity against human NCI-ADR-RES cells assessed as cell growth at 10^-8 M after 48 hrs by SRB assay; conditions: read-out: Activity
HT-29 [14] = test: Cytotoxicity against human HT-29 cells assessed as cell growth at 10^-6 M after 48 hrs by SRB assay; conditions: HT-29, 48 h, read-out: Activity
CAKI-1 [15] = test: Cytotoxicity against human Caki1 cells assessed as cell growth at 10^-7 M after 48 hrs by SRB assay; conditions: CAKI-1, 48 h, read-out: Activity
NCI-H226 [16] = test: Cytotoxicity against human NCI-H226 cells assessed as cell growth at 10^-8 M after 48 hrs by SRB assay; conditions: NCI-H226, 48 h, read-out: Activity
PC-3 = test: Cytotoxicity against human PC3 cells assessed as cell growth at 10^-4 M after 48 hrs by SRB assay; conditions: PC-3, 48 h, read-out: Activity
TK-10 [17] = test: Cytotoxicity against human TK10 cells assessed as cell growth at 10^-4 M after 48 hrs by SRB assay; conditions: TK-10, 48 h, read-out: Activity
CAKI-1 [18] = test: Cytotoxicity against human Caki1 cells assessed as cell growth at 10^-6 M after 48 hrs by SRB assay; conditions: CAKI-1, 48 h, read-out: Activity
IGROV-1 = test: Cytotoxicity against human IGROV1 cells after 48 hrs by SRB assay; conditions: IGROV-1, 48 h
TK-10 [19] = test: Cytotoxicity against human TK10 cells assessed as cell growth at 10^-6 M after 48 hrs by SRB assay; conditions: TK-10, 48 h, read-out: Activity
RXF 393 = test: Cytotoxicity against human RXF393 cells assessed as cell growth at 10^-7 M after 48 hrs by SRB assay; conditions: RXF 393, 48 h, read-out: Activity
M14 = test: Cytotoxicity against human M14 cells after 48 hrs by SRB assay; conditions: M14, 48 h
NCI-H226 [20] = test: Cytotoxicity against human NCI-H226 cells after 48 hrs by SRB assay; conditions: NCI-H226, 48 h
LOX IMVI = test: Cytotoxicity against human LOXIMVI cells assessed as cell growth at 10^-7 M after 48 hrs by SRB assay; conditions: read-out: Activity
BT-549 = test: Cytotoxicity against human BT549 cells assessed as cell growth at 10^-8 M after 48 hrs by SRB assay; conditions: BT-549, 48 h, read-out: Activity
DU-145 [21] = test: Cytotoxicity against human DU145 cells after 48 hrs by SRB assay; conditions: DU-145, 48 h
SF-268 = test: Cytotoxicity against human SF268 cells assessed as cell growth at 10^-7 M after 48 hrs by SRB assay; conditions: SF-268, 48 h, read-out: Activity
HCT-116 = test: Cytotoxicity against human HCT116 cells assessed as cell growth at 10^-6 M after 48 hrs by SRB assay; conditions: HCT-116, 48 h, read-out: Activity
SN12C [22] = test: Cytotoxicity against human SN12C cells after 48 hrs by SRB assay
SK-MEL-5 = test: Cytotoxicity against human SK-MEL-5 cells assessed as cell growth at 10^-7 M after 48 hrs by SRB assay; conditions: SK-MEL-5, 48 h, read-out: Activity
COLO 205 [23] = test: Cytotoxicity against human COLO205 cells assessed as cell growth at 10^-4 M after 48 hrs by SRB assay; conditions: COLO 205, 48 h, read-out: Activity
Malme-3M = test: Cytotoxicity against human MALME-3M cells assessed as cell growth at 10^-8 M after 48 hrs by SRB assay; conditions: read-out: Activity
K562 = test: Cytotoxicity against human K562 cells assessed as cell growth at 10^-7 M after 48 hrs by SRB assay; conditions: K562, 48 h, read-out: Activity
MCF7 [24] = test: Cytotoxicity against human MCF7 cells after 48 hrs by SRB assay; conditions: MCF7, 48 h
NCI-H23 = test: Cytotoxicity against human NCI-H23 cells assessed as cell growth at 10^-4 M after 48 hrs by SRB assay; conditions: NCI-H23, 48 h, read-out: Activity

Structure (SMILES): C=CCn1c(C)nc2ccc(Nc3nc(Nc4ccc(F)cc4)nc4ccccc34)cc21
- growth at 1 µM (COLO 205 [1]): 95%
- growth at 100 µM (SN12C [2]): -49%
- growth at 0.01 µM (COLO 205 [3]): 97%
- GI50 (HT-29 [4]): 3 µM
- LC50 (concentration killing 50% of cells) (HT-29 [4]): > 100 µM
- TGI (HT-29 [4]): 13.3 µM
- GI50 (HOP-92 [5]): 0.585 µM
- LC50 (HOP-92 [5]): 36.2 µM
- TGI (HOP-92 [5]): 6.97 µM
- growth at 100 µM [6]: -82%
- growth at 1 µM (DU-145 [7]): 95%
- growth at 0.01 µM (SF-539 [8]): 99%
- inhibition of growth at 10 µM (A498): 40%
- growth at 1 µM (OVCAR-3): 97%
- growth at 0.1 µM (MCF7 [9]): 87%
- growth at 0.01 µM (SN12C [10]): 93%
- growth at 1 µM (HL-60(TB)): 104%
- growth at 1 µM (UACC-62): 91%
- growth at 0.1 µM (HOP-92 [11]): 80%
- growth at 0.1 µM (SF-539 [12]): 98%
- growth at 0.01 µM [13]: 100%
- growth at 1 µM (HT-29 [14]): 91%
- growth at 0.1 µM (CAKI-1 [15]): 102%
- growth at 0.01 µM (NCI-H226 [16]): 92%
- growth at 100 µM (PC-3): -79%
- growth at 100 µM (TK-10 [17]): -63%
- growth at 1 µM (CAKI-1 [18]): 93%
- GI50 (IGROV-1): 6.09 µM
- LC50 (IGROV-1): 98.7 µM
- TGI (IGROV-1): 27.2 µM
- growth at 1 µM (TK-10 [19]): 100%
- growth at 0.1 µM (RXF 393): 83%
- GI50 (M14): 3.26 µM
- TGI (M14): 14.2 µM
- CC50 (M14; read-out: LC50 (the source's name)): > 100 µM
- GI50 (NCI-H226 [20]): 1.78 µM
- TGI (NCI-H226 [20]): 3.85 µM
- growth at 0.1 µM (LOX IMVI): 98%
- growth at 0.01 µM (BT-549): 88%
- GI50 (DU-145 [21]): 8.63 µM
- LC50 (50% lethal concentration) (DU-145 [21]): 54.7 µM
- TGI (DU-145 [21]): 22.8 µM
- growth at 0.1 µM (SF-268): 90%
- growth at 1 µM (HCT-116): 88%
- GI50 (SN12C [22]): 2.78 µM
- LC50 (SN12C [22]): > 100 µM
- TGI (SN12C [22]): 15.1 µM
- growth at 0.1 µM (SK-MEL-5): 93%
- growth at 100 µM (COLO 205 [23]): -28%
- growth at 0.01 µM (Malme-3M): 97%
- growth at 0.1 µM (K562): 103%
- GI50 (MCF7 [24]): 1.48 µM
- TGI (MCF7 [24]): 3.44 µM
- growth at 100 µM (NCI-H23): -39%

Structure (SMILES): C=CCn1c(C)nc2cc(Nc3nc(NCCO)nc4ccccc34)ccc21
- inhibition of growth at 10 µM (A498): 40%

Structure (SMILES): C=CCn1c(C)nc2ccc(Nc3nc(Sc4ccc(N)cc4)nc4ccccc34)cc21
- inhibition of growth at 10 µM (A498): 50%
